In the supplement of paper PMC7840683:
Structures can show the parent of a compound that is named as a salt.

Tested on: HepaRG
Test: LDH release cytotoxicity, % of total lysis control; higher = more cytotoxic
Conditions: 48 h
In short: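 HepaRG cells from a single lot were plated on collagen I-coated 96-well plates and treated in duplicate for 48 h with eight-point half-log series of test chemicals, starting at 100 µM, in serum-free induction medium containing 0.5% DMSO. Total lysis wells were given 0.1% Triton X. LDH released into 50 µL of spent medium was measured as resorufin fluorescence with CytoTox-ONE on a Tecan Safire. Percent cytotoxicity was normalized to on-plate vehicle and total lysis controls and then averaged across duplicates.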

O=C(O)c1ccccc1 [Benzoic acid]
Conditions | LDH release cytotoxicity [%]
0.0324133 µM | -0.341
0.1025 µM | -0.867
0.324134 µM | -1.11
1.025 µM | -0.944
3.24133 µM | -0.925
10.25 µM | 0.28
32.4133 µM | 0.174
102.5 µM | 0.953

Oc1ccc(C(c2ccc(O)cc2)C(Cl)(Cl)Cl)cc1 [2,2-Bis(4-hydroxyphenyl)-1,1,1-trichloroethane]
Conditions | LDH release cytotoxicity [%]
0.0320971 µM | 1.05
0.1015 µM | 0.207
0.320971 µM | 0.656
1.015 µM | 1.23
3.2097118 µM | 0.563
10.15 µM | 0.192
32.0971 µM | 1.16
101.5 µM | 2.4

Nc1ccc(Nc2ccccc2)cc1 [N-Phenyl-1,4-benzenediamine]
Conditions | LDH release cytotoxicity [%]
0.03162 µM | -1.18
0.1 µM | -0.818
0.3162278 µM | -1.06
1 µM | -0.838
3.16228 µM | -0.438
10 µM | -0.107
31.6228 µM | 1.04
100 µM | 3.97

CN1COCN(Cc2cnc(Cl)s2)C1=N[N+](=O)[O-] [Thiamethoxam]
Conditions | LDH release cytotoxicity [%]
0.03162 µM | -0.296
0.1 µM | -1.13
0.3162278 µM | -0.0609
1 µM | -1.83
3.16228 µM | -1.49
10 µM | 0.119
31.6228 µM | -1.01
100 µM | 0.102

Cc1cc(-c2ccc(N)c(C)c2)ccc1N [3,3'-Dimethylbenzidine]
Conditions | LDH release cytotoxicity [%]
0.03162 µM | -0.774
0.1 µM | -1.43
0.3162278 µM | -1.35
1 µM | -1.27
3.16228 µM | -0.397
10 µM | -0.218
31.6228 µM | 2.22
100 µM | 5.88

CN(C)CCCN1c2ccccc2Sc2ccc(Cl)cc21 [Chlorpromazine hydrochloride]
Conditions | LDH release cytotoxicity [%]
0.031623 µM | -1.42
0.1 µM | -1.97
0.316228 µM | -1.98
1 µM | -2.9
3.16228 µM | -1.62
10 µM | -1.31
31.6228 µM | 10.7
100 µM | 77.6

CC(C)(C)c1cccc(C(C)(C)C)c1O [2,6-Di-tert-butylphenol]
Conditions | LDH release cytotoxicity [%]
0.03162 µM | -1.46
0.1 µM | -2.07
0.3162278 µM | -1.81
1 µM | -2.85
3.16228 µM | -2.37
10 µM | -2.01
31.6228 µM | -2.37
100 µM | -2.35

CCCCCCC(CCCCCCCCCCC(=O)OCC(COC(C)=O)OC(C)=O)OC(C)=O (stereo unspecified) [Grinstad Soft-N-Safe]
Conditions | LDH release cytotoxicity [%]
0.015811 µM | -1.88
0.05 µM | -1.59
0.158114 µM | -1.52
0.5 µM | -1.93
1.58114 µM | -2.07
5 µM | -1.64
15.8114 µM | -0.943
50 µM | 1.04

Cc1nccn1-c1ccc(Sc2cccc(C3(C(N)=O)CCOCC3)c2)cc1
Conditions | LDH release cytotoxicity [%]
0.03162 µM | -2.79
0.1 µM | -3.28
0.3162278 µM | -2.87
1 µM | -3.4
3.16228 µM | -2.44
10 µM | 7.65
31.6228 µM | 31.9
100 µM | 42.52

Cc1cc(NC(=O)C(=O)O)cc(C)c1Oc1ccc(O)c2c1CCC2
Conditions | LDH release cytotoxicity [%]
0.03162 µM | 0.0573
0.1 µM | -0.831
0.3162278 µM | -0.658
1 µM | -1.32
3.16228 µM | -1.06
10 µM | -0.633
31.6228 µM | 1.17
100 µM | 0.214

ClC1=C(Cl)C(Cl)(Cl)C(Cl)=C1Cl [Hexachlorocyclopentadiene]
Conditions | LDH release cytotoxicity [%]
0.031623 µM | -1.11
0.1 µM | -0.0238
0.316228 µM | -1.49
1 µM | -1.14
3.16228 µM | -0.83
10 µM | -0.988
31.6228 µM | -0.0453
100 µM | 0.368

CC(C)=CCC/C(C)=C/CO [Geraniol]
Conditions | LDH release cytotoxicity [%]
0.03162 µM | -2.2
0.1 µM | -2.89
0.3162278 µM | -2.68
1 µM | -2.72
3.16228 µM | -2.26
10 µM | -1.87
31.6228 µM | -1.12
100 µM | -0.773

Nc1cc2c3c(c1)C(c1ccccc1)=NC(NC(=O)c1cccnc1)C(=O)N3CC2 (stereo unspecified) [CI-1044]
Conditions | LDH release cytotoxicity [%]
0.03162 µM | -1.32
0.1 µM | -0.234
0.3162278 µM | -1.37
1 µM | -0.0936
3.16228 µM | -0.301
10 µM | 0.515
31.6228 µM | 0.683
100 µM | 0.815

Clc1cc(Cl)c(Cl)cc1Cl [1,2,4,5-Tetrachlorobenzene]
Conditions | LDH release cytotoxicity [%]
0.03162 µM | -1.15
0.1 µM | -1.29
0.3162278 µM | -0.238
1 µM | -1.08
3.16228 µM | -0.932
10 µM | -0.175
31.6228 µM | -0.116
100 µM | 1.14

O=C(O)CCCCC(=O)O [Hexanedioic acid]
Conditions | LDH release cytotoxicity [%]
0.03162 µM | -0.567
0.1 µM | -0.838
0.3162278 µM | -1.43
1 µM | -1.17
3.16228 µM | -1.55
10 µM | -0.895
31.6228 µM | -1.25
100 µM | 0.446

COC(=O)c1ccccc1C(=O)OC [Dimethyl phthalate]
Conditions | LDH release cytotoxicity [%]
0.03162 µM | -0.705
0.1 µM | -1.99
0.3162278 µM | -1.58
1 µM | -2.6
3.16228 µM | -1.11
10 µM | -0.678
31.6228 µM | -0.11
100 µM | 1.18

Nc1ccc(Cl)cc1 [4-Chloroaniline]
Conditions | LDH release cytotoxicity [%]
0.03162 µM | -1.56
0.1 µM | -0.947
0.3162278 µM | -2.25
1 µM | -1.34
3.16228 µM | -0.444
10 µM | -1.71
31.6228 µM | -1.53
100 µM | 0.243

CN(C)C=O [N,N-Dimethylformamide]
Conditions | LDH release cytotoxicity [%]
0.03162 µM | -0.983
0.1 µM | -2.55
0.3162278 µM | -1.61
1 µM | -2.12
3.16228 µM | -2.02
10 µM | -1.22
31.6228 µM | -0.581
100 µM | 0.434

CC(C)(C)c1cc(C=C2SC(=N)NC2=O)cc(C(C)(C)C)c1O [Darbufelone mesylate]
Conditions | LDH release cytotoxicity [%]
0.03162 µM | -2.49
0.1 µM | -3.41
0.3162278 µM | -3.09
1 µM | -3.16
3.16228 µM | -3.23
10 µM | -3.27
31.6228 µM | -2.49
100 µM | -1.56

O=C(CCCN1CCC(O)(c2ccc(Cl)cc2)CC1)c1ccc(F)cc1 [Haloperidol]
Conditions | LDH release cytotoxicity [%]
0.03162 µM | -1.32
0.1 µM | -2.17
0.3162278 µM | -1.58
1 µM | -1.63
3.16228 µM | -2.03
10 µM | -1.44
31.6228 µM | 4.34
100 µM | 62.2

C[N+]1(C)CCCCC1 [1,1-Dimethylpiperidinium chloride]
Conditions | LDH release cytotoxicity [%]
0.03162 µM | -1.22
0.1 µM | -0.187
0.3162278 µM | -1.4
1 µM | -1.35
3.16228 µM | 0.248
10 µM | 0.722
31.6228 µM | -0.465
100 µM | 0.762

O=C1CCCCC1 [Cyclohexanone]
Conditions | LDH release cytotoxicity [%]
0.03162 µM | -0.709
0.1 µM | -1.76
0.3162278 µM | -1.81
1 µM | -1.07
3.16228 µM | -1.46
10 µM | -1.17
31.6228 µM | -0.292
100 µM | 0.737
